According to patent US20100056468A1, “Pyrimidine Derivatives As Anticancer Agents” (University Health Network, priority 2007, published 2010):
Like-named read-outs stand apart in the source and are kept apart here.

Experiments:
Mt ODCase [1] = biological target: T1, Mt ODCase (Methanothermobacter thermautotrophicus, UniProt O26232); details: read-out: inhibition constant (Ki), Mt ODCase; cited from earlier work
Hs ODCase = biological target: T2, Hs ODCase (Homo sapiens, UniProt P11172); experiment: Reversible (competitive) inhibition of ODCase, calorimetric assay; type: biochemical; details: 37° C., 60 nM enzyme
T2 construct: ODCase region of human UMP synthase
Description: The stock solution of enzyme (60 μM) was prepared in 50 mM Tris (pH 7.5), 20 mM DTT, and 40 mM NaCl and incubated overnight at 4° C. This stock sample was later used to prepare the enzyme assay samples. The enzyme was kept on ice during the experiment. The enzyme stock was diluted with 50 mM Tris buffer containing 1 mM DTT to prepare 60 nM enzyme assay samples. The final substrate concentration was 15 or 20 μM. Concentrated samples of inhibitors were prepared in 50 mM Tris (pH 7.5). The volumes and concentrations of the enzyme and substrate were the same as described above for the reaction without inhibitor. All three compounds were tested in a competitive inhibition assay where enzyme is mixed with the inhibitor and the reaction is initiated by the substrate addition. Assay samples were prepared in 50 mM Tris, 1 mM DTT. The final assay concentration of 5-F-6-azido-UMP was 0, 0.25, 0.50, 0.75, 1.0 μM. The assay samples were prepared with 0, 0.2, 0.4, 1.0, and 2.0 μM and 0, 50, 100, 250, 500 μM 5-fluoro-6-ethyl-UMP.
The initial data analyses were done in Origin 7.0 software. The raw data representing the heat change over time were converted to the reaction rate at each recorded time point. A Michaelis-Menten plot was constructed and the data were fitted to MM equation (Eq. 1) to determine the kinetic parameters KM and kcat. The molar enthalpy (ΔH) was also automatically calculated.
To calculate the Ki the data were exported to GraFit 5.0 program. The data points were fitted to the competitive inhibition equation (Eq. 2) and the Ki was estimated from the Dixon plot.

OCI-Ly-7 = experiment: In vitro cell proliferation assay (WST.1, Table 5); type: cell-based; details: Homo sapiens, OCI-Ly7, 72 h; OCI-Ly-7, day 3
Description: (§1) These cell lines were grown in Iscove's MDM supplemented with 5% fetal calf serum (FCS), 50 μM 2-mercaptoethanol, 100 μg/ml penicillin, and 100 μg/ml streptomycin. Cell lines growing in suspension were maintained at 0.5-1.5×10^6 cell/ml, while adherent cell lines were maintained at subconfluent densities.
(§2) Cell lines were seeded in triplicate at 10^4 cells/100 μl in 96-well plates. Peripheral blood mononuclear cells were seeded in triplicate at 10^5 cells/100 μl in 96-well plate. Different test compounds were added immediately at final concentrations ranging between 0 to 100 μM. All compounds were dissolved in sterile deionized water, so water was added to the control wells. On day 3, WST.1 assay (Roche) was used to measure the effect of different test compounds on cell growth. WST.1 assay is a calorimetric assay for the nonradioactive quantification of cell proliferation, cell viability, and cytotoxicity. The assay was performed according to manufacturer's instructions (Roche). It relies on the cleavage by cellular enzymes of WST.1 (water soluble tetrazolium salt: 4-[3-(4-iodophenyl)-2-(4-nitrophenyl)-2H-5-tetrazolio]-1,3-benzene disulfonate) to formazan. The amount of formazan dye formed correlates to the number of metabolically active cells in the culture and is readily read in an ELISA microplate reader using an absorbance wavelength of 440 nm. These OD values are plotted against concentrations of different compounds and IC50 is determined for each compound.

MDA468 = experiment: In vitro cell proliferation assay (WST.1, Table 5); type: cell-based; details: Homo sapiens, 72 h; MDA468, day 3
Description: as §1, §2

MCF7 [2] = experiment: In vitro cell proliferation assay (WST.1, Table 5); type: cell-based; details: Homo sapiens, 72 h; MCF7, day 3
Description: as §1, §2

PC3 [3] = experiment: In vitro cell proliferation assay (WST.1, Table 5); type: cell-based; details: Homo sapiens, PC-3, 72 h; PC3, day 3
Description: as §1, §2

OCI-AML-1 = experiment: In vitro cell proliferation assay (WST.1, Table 5); type: cell-based; details: Homo sapiens, 72 h; OCI-AML-1, day 3
Description: as §1, §2

SKW3 [4] = experiment: In vitro cell proliferation assay (WST.1, Table 5); type: cell-based; details: Homo sapiens, 72 h; SKW3, day 3
Description: as §1, §2

OCI-My-2 = experiment: In vitro cell proliferation assay (WST.1, Table 5); type: cell-based; details: Homo sapiens, 72 h; OCI-My-2, day 3
Description: as §1, §2

LOX [5] = experiment: In vitro cell proliferation assay (WST.1, Table 5); type: cell-based, human; details: Homo sapiens, 72 h, day 3
Description: as §1, §2

[6] = tested on: leukemias (OCI-AML-1, OCI-AML-2, SKW3), lymphomas (OCI-Ly-7), multiple myeloma (OCI-My-2); experiment: In vitro cell proliferation assay (WST.1), summary over cell lines; type: cell-based; details: Homo sapiens; OCI-AML-1, OCI-AML-2, SKW3, OCI-Ly-7, OCI-My-2; read-out: IC50 values, range over cell lines
Description: as §1, §2

Mt ODCase [7] = biological target: T1, Mt ODCase; experiment: biochemical; design: species or system M. thermoautotrophicum; details: reversible inhibition, 20 nM enzyme, 40 μM OMP
[8] = Tolerance in NOD-SCID mice; type: in vivo; details: 0.15 mg/kg and 1.5 mg/kg
Description: (§3) In a pilot study, first the in vivo effects of compound Ic in a murine tumor model (70Z/3) were studied. […]. In this pilot study, 10^6 70Z/3 cells were injected into syngeneic mice (C57BL6×DBA/2) after which the mice were treated with compound Ic on days 2, 3, 4, 7, 8, and 9 at doses of 0.15 mg/kg or 1.5 mg/kg or with PBS. Some mice were also treated with the compound alone to test for toxic effects in the absence of tumor growth. On day 10, two mice from each group were euthanized and they were examined for the presence of disease. After 70Z/3 cells are injected they home to the spleen and proliferate causing increased spleen weight and cellularity. […]. Two additional mice from each group were followed for an additional 7 days during which mice in the treatment groups were treated daily.

70Z/3 (murine) = experiment: WST-1 cell growth assay (Table 3); type: cell-based; details: Mus musculus, 72 h; 70Z/3 murine B cell leukemia, 3 days
Description: (§4) Thirteen C6 substituted nucleoside derivatives were tested against seventeen cancer cell lines in order to understand their anticancer activity potential. Cell growth was measured in 96 well plates (6 replicates per dose) in which 10^4 cells were seeded for 3 days with a range of concentrations of compound Ic and Id using the Roche WST-1 assay (Ishiyama M et al (1995) In Vitro Toxicology 8, 187-189) following manufactures directions.
In a pilot study, first the in vivo effects of compound Ic in a murine tumor model (70Z/3) were studied. This murine model served to provide the baseline for toxicity data in a tumor setting. […] In this pilot study, 10^6 70Z/3 cells were injected into syngeneic mice (C57BL6×DBA/2) after which the mice were treated with compound Ic on days 2, 3, 4, 7, 8, and 9 at doses of 0.15 mg/kg or 1.5 mg/kg or with PBS. Some mice were also treated with the compound alone to test for toxic effects in the absence of tumor growth. On day 10, two mice from each group were euthanized and they were examined for the presence of disease. After 70Z/3 cells are injected they home to the spleen and proliferate causing increased spleen weight and cellularity. […] It would appear from this very small pilot study that mice can tolerate a dose of the drug which is ten times more than a dose which reduces tumor expansion in the spleen (FIG. 4 and Table 2). […]

[9] = tested on: PBMC - Peripheral blood mononuclear cells; experiment: WST-1 cell growth assay on stimulated PBMCs (Table 3); type: cell-based, human
[10] = tested on: 70Z/3 murine acute lymphoblastic leukemia; experiment: In vivo pilot study on 70Z/3 leukemic mice
Description: as §3

CCD967 = experiment: WST-1 cell growth assay (Table 3); type: cell-based; details: Homo sapiens, CCD-967, 72 h; CCD967 skin fibroblast line, 3 days
Description: as §4

MDA-MB-468 = experiment: WST-1 cell growth assay (Table 3); type: cell-based; details: Homo sapiens, 72 h; MDA-MB-468 breast adenocarcinoma, 3 days
Description: as §4

OCI MY2 = experiment: WST-1 cell growth assay (Table 3); type: cell-based; details: Homo sapiens, 72 h; OCI MY2 myeloma, 3 days
Description: as §4

LOX [11] = experiment: WST-1 cell growth assay (Table 3); type: cell-based; details: Homo sapiens, 72 h; LOX melanoma, 3 days
Description: as §4

COLO205 = experiment: WST-1 cell growth assay (Table 3); type: cell-based; details: Homo sapiens, COLO 205, 72 h; COLO205 colorectal adenocarcinoma, 3 days
Description: as §4

MCF7 [12] = experiment: WST-1 cell growth assay (Table 3); type: cell-based; details: Homo sapiens, 72 h; MCF7 breast adenocarcinoma, 3 days
Description: as §4

PC3 [13] = experiment: WST-1 cell growth assay (Table 3); type: cell-based; details: Homo sapiens, PC-3, 72 h; PC3 prostate adenocarcinoma, 3 days
Description: as §4

OVCAR4 = experiment: WST-1 cell growth assay (Table 3); type: cell-based; details: Homo sapiens, OVCAR-4, 72 h; OVCAR4 ovarian adenocarcinoma, 3 days
Description: as §4

SKW3 [14] = experiment: WST-1 cell growth assay (Table 3); type: cell-based; details: Homo sapiens, 72 h; SKW3 T cell leukemia, 3 days
Description: as §4

HS578T = experiment: WST-1 cell growth assay (Table 3); type: cell-based; details: Homo sapiens, Hs-578T, 72 h; HS578T breast carcinosarcoma, 3 days
Description: as §4

OCI AML2 = experiment: WST-1 cell growth assay (Table 3); type: cell-based; details: Homo sapiens, 72 h; OCI AML2 myloid leukemia, 3 days
Description: as §4

PPC1 = experiment: WST-1 cell growth assay (Table 3); type: cell-based; details: Homo sapiens, PPC-1, 72 h; PPC1 prostate, 3 days
Description: as §4

T47D = experiment: WST-1 cell growth assay (Table 3); type: cell-based; details: Homo sapiens, 72 h; T47D breast adenocarcinoma, 3 days
Description: as §4

OCI LY7 = experiment: WST-1 cell growth assay (Table 3); type: cell-based; details: Homo sapiens, 72 h; OCI LY7 B cell lymphoma, 3 days
Description: as §4

OCI AML1 = experiment: WST-1 cell growth assay (Table 3); type: cell-based; details: Homo sapiens, 72 h; OCI AML1 myloid leukemia, 3 days
Description: as §4

SNB19 = experiment: WST-1 cell growth assay (Table 3); type: cell-based; details: Homo sapiens, SNB-19, 72 h; SNB19 glioblastoma, 3 days
Description: as §4

[15] = tested on: leukemia/lymphoma and breast cancer cell lines (AML1, AML2, SKW3, OCI LY7, OCI MY2, MDA-MB-468 and MCF7); experiment: WST-1 cell growth assay, summary over cell lines; type: cell-based; details: Homo sapiens, read-out: Inhibition constants (IC50s), range over cell lines
Description: as §4

O=c1cnn([C@@H]2O[C@H](COP(=O)(O)O)[C@@H](O)[C@H]2O)c(=O)[nH]1 [6-Aza-uridine uridine 5′-monophosphate, 6-aza-uridine 5′-monophosphate]
Ki (Mt ODCase [1]): 11 µM

CCc1c(F)c(=O)[nH]c(=O)n1C1OC(CO)C(O)C1O (stereo not drawn) [Iah]
Ki (Hs ODCase): 0.353 ± 0.01 µM | IC50 (OCI-Ly-7): 1.9 µM | IC50 (MDA468): 5.3 µM | IC50 (MCF7 [2]): 31.4 µM | IC50 (PC3 [3]): > 100 µM | IC50 (OCI-AML-1): 2.1 µM | IC50 (SKW3 [4]): 1.2 µM | IC50 (OCI-My-2): 1.4 µM | IC50 (LOX [5]): 4.5 µM | IC50 [6]: 0.3 to 2.1 µM | Ki (Mt ODCase [7]): 29 ± 0.3 µM

Nc1cc(=O)[nH]c(=O)n1[C@@H]1O[C@H](CO)[C@@H](O)[C@H]1O [Ic, 6-Amino uridine]
tolerance [8]: tolerated these doses without apparent toxicity | IC50 (70Z/3 (murine)): 0.3 µM | IC50 ([9]; Homo sapiens, volunteer, read-out: IC50): > 10 µM | IC50 ([9]; healthy human PBMCs stimulated with concanavalin A and phorbol myristate acetate, read-out: inhibitory constants (IC50's)): > 10 µM | disease progression ([10]; followed for an additional 7 days, treated daily, untreated mice died on days 11 and 13): no sign of disease progression | spleen weight and cellularity ([10]; mice injected with 10^6 70Z/3 cells, 0.15 mg/kg or 1.5 mg/kg on days 2, 3, 4, 7, 8, 9, day 10): indistinguishable from the control mice | spleen weight or cellularity, compound alone ([10]; mice without tumor, compound alone, day 10): did not influence spleen weight or cellularity | IC50 (CCD967): > 4 µM | IC50 (MDA-MB-468): 3.7 ± 0.1 µM | IC50 (OCI MY2): > 4 µM | IC50 (LOX [11]): > 4 µM | IC50 (COLO205): > 4 µM | IC50 (MCF7 [12]): 1.5 ± 0.1 µM | IC50 (PC3 [13]): > 4 µM | IC50 (OVCAR4): > 4 µM | IC50 (SKW3 [14]): 0.8 ± 0.1 µM | IC50 (HS578T): > 4 µM | IC50 (OCI AML2): 0.9 ± 0.1 µM | IC50 (PPC1): > 4 µM | IC50 (T47D): > 4 µM | IC50 (OCI LY7): 1.8 ± 0.1 µM | IC50 (OCI AML1): 0.8 ± 0.1 µM | IC50 (SNB19): > 4 µM | IC50 [15]: 0.7 to 3.5 µM
